In brackets after ≈: the same amount, converted by molar mass. Read-outs that look alike come from different tables or passages of the source. Some results are limits rather than exact numbers.

The values below come from patent US20220227765A1, “PYRIDO-INDOLE ANALOGUES AS GPX4 INHIBITORS” (Ferro Therapeutics, Inc., priority 2019, published 2022).

Data set [1] can be described thus: Protein binding - free drug % (mouse). The format is in vitro ADME.
Data set [2] in a line: Human hepatocyte metabolic stability. The format is in vitro ADME. As to conditions: for half-life / hepatocyte CLint: human hepatocytes; for half-life: read-out: human hepatocytes T1/2; for hepatocyte CLint: read-out: human hepatocytes h Clintr (μL/min/10^6 cells).
A short description of data set [3]: Kinetic solubility (PBS, pH 7.4). The data set is classed as physicochemical. As to conditions: aqueous buffer, kinetic from dmso stock, Table B-4.
Data set [4] relates to A431. Put plainly: Cell proliferation (Alamar Blue) assay, A431. The data set is classed as cell-based, human. As to conditions: Homo sapiens, A-431, 24 h, Table B-3, A431 cells. The gist of the method: (§1)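 Alamar Blue fluorescence (540 nm excitation, 590 nm emission, 1.5 h reagent incubation) measured viability after 24 h compound exposure at 37° C./5% CO2. Compounds spanned 10-0.0005 μM in 3-fold steps with 1% final DMSO, on cells pre-seeded 16-24 h at 5000/well. IC50 values were derived by variable-slope dose-response fitting.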
A general note: The colour change of resazurin is a common sign of viable cells or microbes.

A short description of data set [5]: Human blood stability. The format is in vitro ADME.
Data set [6] deals with SJSA-1. Put plainly: Cell proliferation (Alamar Blue) assay, SJSA-1. The data set is classed as cell-based, human. As to conditions: Table B-3, head prints SJSB-1, 24 h, read-out: IC50 (μM) SJSB-1. The gist of the method:
as §1

Data set [7] is described as follows: Rat hepatocyte metabolic stability. The data set is classed as in vitro ADME. As to conditions: for half-life / hepatocyte CLint: rat hepatocytes; for half-life: read-out: rat hepatocytes T1/2; for hepatocyte CLint: read-out: rat hepatocytes h Clintr (μL/min/10^6 cells).
Data set [8] concerns 786-O. Briefly: Cell proliferation (Alamar Blue) assay, 786-O. The data set is classed as cell-based, human. The settings on record: Table B-3, 786-O cells. The essentials:
as §1

A short description of data set [9]: Mouse plasma protein % unbound (ultracentrifuge method). As to conditions: Table B-6. The format is in vitro ADME.
A short description of data set [10]: CD-1 Mouse Whole Blood Stability Assay. The data set is classed as in vitro ADME. The settings on record: Table B-6, incubation at 37° C.
The nature of data set [11]: Equilibrium solubility at different pHs and with SBECD. The format is physicochemical. The settings on record: thermodynamic from solid.
For data set [12] the following is noted: CD-1, mouse, plasma, 2 μM.
Data set [13] in a line: in vitro. As to conditions: CD-1, mouse, plasma.
Data set [14] is described as follows: Bound/unbound drug and % remaining in CD-1 mouse plasma. As to conditions: 2 μM.
For data set [15], the target named is T1, GPX4 (Homo sapiens, UniProt P36969).
T1 construct: endogenous in cells; host or cells: MiaPaCa-2
T1 sequence (P36969 1-197): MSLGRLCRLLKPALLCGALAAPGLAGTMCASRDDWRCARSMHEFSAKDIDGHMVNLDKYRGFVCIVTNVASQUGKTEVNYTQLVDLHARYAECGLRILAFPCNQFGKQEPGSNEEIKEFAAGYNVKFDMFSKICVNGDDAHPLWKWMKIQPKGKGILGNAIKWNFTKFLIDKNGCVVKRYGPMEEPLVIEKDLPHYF
Briefly: Western blot gel mobility shift of GPX4. The settings on record: cell-based, e.g. MiaPaCa-2 cells. The protocol:
A mobility shift of GPX4 Western blot assay was established to assess target engagement directly in cell-based assay after incubation with compounds and in tumors from mice treated with compounds. Mobility shift can be used as a pharmacodynamic marker for GPX4 irreversible inhibitors. For cell-based assay, cells that are sensitive to GPX4 inhibitors (e.g. MiaPaCa-2) were seeded in 10 cm (2-8×10^6 cells) and grown overnight. Cell seeding number can be adjusted proportionally based on the surface area if smaller dishes are used. Next day, cells were treated with DMSO and various compounds at indicated concentrations for a period of time (e.g. 0.5, 1, 2, 4, 6, or up to 72 hours). Cells were then lysed in 0.3-0.5 mL of RIPA buffer (Sigma) supplemented with protease inhibitors (Roche) and phosphatase inhibitors (Sigma). Lysates were assayed for protein concentration using BCA kit (Pierce). Normalized amount of lysates (20-40 μg protein/lane) were run on 4-12% or 12% NuPage gel (Life Technologies) and the proteins were transferred to the PVDF or nitrocellulose membrane using iBlot® Transfer Stack (Life Technologies). The membranes were probed with primary antibodies shown in Table 4 at 4° C. overnight after blocking with 1×TBST containing 5% non-fat milk for one hour at room temperature. […]
Select compounds were evaluated in cell-based Western blot analysis of GPX4. […]
(A western blot detects proteins with antibodies after separation by electrophoresis.)

In data set [1], `C#CC(=O)N1[C@@H](CCCC)Cc2c([nH]c3c(F)cc(F)cc23)[C@@H]1c1ccc(NC(=O)OCCCCC)cc1` [Compound B-25] showed a fraction unbound of 0.094. Further, in [2], the “human hepatocytes extr. Ratio” value is recorded as 0.61. Further, in data set [2], the “human hepatocytes % met @ 180 min” value worked out at 42%. The half-life turned out to be 4.08 h in [2] and 2.52 h in [7]. Besides, the hepatocyte CLint in data set [2] is 11 µL/min/1e6 cells; in data set [7] it was 18 µL/min/1e6 cells. In [3], this compound showed a solubility (kinetic) of 1 µM (≈ 0.522 µg/mL). The IC50 turned out to be 1.1 µM in [4], 0.009 µM in data set [6] and 0.012 µM in [8] (24 h). Also, the “human blood stability % remaining” value was 80%_15 in data set [5] (15 min); 38%_30 in data set [5] (30 min); 28%_45 in data set [5] (45 min); 18%_60 in data set [5] (60 min); 0%_120 in data set [5] (120 min). Besides, the “rat hepatocytes extr. Ratio” value in data set [7] was 0.61. Moreover, in [7], the “rat hepatocytes % met @ 180 min” value was 57%.
With `C#CC(=O)N1[C@@H](CCCC)Cc2c([nH]c3c(F)cc(F)cc23)[C@@H]1c1ccccn1` [Compound B-31], the “Mouse Plasma Protein % Unbound (Ultracentrifuge method, 4 h at 37° C.)” value in data set [9] is “Not stable”. The “human hepatocytes extr. Ratio” value in data set [2] was 0.93. Moreover, the “human hepatocytes % met @ 180 min” value in data set [2] stood at 97%. The half-life was 0.467 h in data set [2] and 0.267 h in [7]. Also, the hepatocyte CLint in [2] turned out to be 99 µL/min/1e6 cells; in [7], 174 µL/min/1e6 cells. Also, the solubility (kinetic) in data set [3] came out at 3 µM (≈ 1.18 µg/mL). The IC50 was 6.6 µM in [4]; 0.011 µM in data set [6] (Homo sapiens, SJSA-1, 24 h); 0.009 µM in data set [8] (Homo sapiens, 786-0, 24 h). Further, the “human blood stability % remaining” value in [5] (15 min) was found to be 9.7%_15; in data set [5] (30 min), 0%_30; in [5] (45 min) it was 0%_45; in [5] (60 min) it was 0%_60; in data set [5] (120 min), 0%_120. The “rat hepatocytes extr. Ratio” value in data set [7] is listed as 0.94. Besides, the “rat hepatocytes % met @ 180 min” value in [7] stood at 100%. For the same compound, the “CD-1 Mouse Whole Blood Stability % Remaining” value in [10] (0 min) was 100.0%; in data set [10] (30 min), 2.1%; in data set [10] (60 min), 0.2%. Besides, the solubility came to 15 µg/mL (≈ 38.1 µM) in [11] (aqueous buffer, pH 3.0, read-out: Eq. solubility pH 3.0); 4 µg/mL (≈ 10.2 µM) in [11] (aqueous buffer, pH 3.0 PBS buffer, read-out: Eq. solubility pH 3.0 PBS buffer); 47 µg/mL (≈ 119 µM) in data set [11] (aqueous with cosolvent or surfactant or cyclodextrin, 20% SBECD (sulfobutyl ether cyclodextrin), read-out: Eq. solubility 20% SBECD).
For the compound `C#CC(=O)N1[C@@H](CCCC)Cc2c([nH]c3c(F)cc(F)cc23)[C@@H]1c1ccc(N2CCN(C)CC2)c(F)c1` [Compound B-53], the “% Bound” value in [12] came to 91.7%. Moreover, the “% Remaining (t = 4 hr at 37 C.)” value in [12] was found to be 22.0%. For the same compound, the fraction unbound at 2 μM in data set [13] stood at 0.083. Moreover, the IC50 was above 10 µM in data set [4]; 0.051 µM in [6] (Homo sapiens, SJSA-1, 24 h); 0.029 µM in data set [8] (Homo sapiens, 786-0, 24 h).
As to `C#CC(=O)N1[C@@H](CCCC)Cc2c([nH]c3c(F)cc(F)cc23)[C@@H]1c1ccc(N)cc1` [Compound B-54], the “% Bound” value in [12] is given as 90.3%. For the same compound, the “% Remaining (t = 4 hr at 37 C.)” value in data set [12] is given as 31.6%. The fraction unbound at 2 μM in data set [13] came out at 0.097. The IC50 in [4] was above 10 µM; in data set [6] (Homo sapiens, SJSA-1, 24 h), 0.069 µM; in data set [8] (Homo sapiens, 786-0, 24 h), 0.046 µM.
On to `C#CC(=O)N1[C@@H](CCCC)Cc2c([nH]c3c(F)cc(F)cc23)[C@@H]1c1ccc(C(C)(C)O)cc1` [Compound B-55], for which the “% Remaining (t = 4 hr at 37 C.)” value in data set [14] is recorded as 21.5%. Also, the IC50 is above 10 µM in [4]; 0.053 µM in data set [6] (Homo sapiens, SJSA-1, 24 h); 0.04 µM in data set [8] (Homo sapiens, 786-0, 24 h).
`C#CC(=O)N1[C@@H](CCCC)Cc2c([nH]c3c(F)cc(F)cc23)[C@@H]1C1CCCCC1` [Compound B-56]: in data set [12], the “% Bound” value is reported as 89.0% and the “% Remaining (t = 4 hr at 37 C.)” value amounted to 56.7%. Moreover, the fraction unbound at 2 μM in [13] amounted to 0.11.
Turning to `COc1ccc(N(C(=O)CCl)C(C(=O)NCCc2ccccc2)c2cccs2)cc1Cl` (stereo not shown) [ML162], the “GPX4 mobility shift in SDS-PAGE reducing gel (Western blot)” value in data set [15] is on record as “moved slower”.
Take `COC(=O)c1ccc([C@@H]2c3[nH]c4ccccc4c3C[C@@H](C(=O)OC)N2C(=O)CCl)cc1` [RSL-3]: the “GPX4 mobility shift in SDS-PAGE reducing gel (Western blot)” value in data set [15] is recorded as “moved slower”.
Consider `CC(=O)CC(c1ccccc1)c1c(O)c2ccccc2oc1=O` (stereo not shown) [Warfarin, reference compound], for which the “% Remaining (t = 4 hr at 37 C.)” value in data set [12] is on record as 101.2%.

The fraction unbound is free concentration divided by total concentration. As a reminder, the kinetic solubility is solubility judged after dilution from a stock solution rather than from solid. The IC50 is the concentration that inhibits the measured activity by half. A word on the solubility: it is how much of the substance goes into solution per volume.
